Measurements reported in US9764002B2, “Dosage regimen for therapeutic method” (MADELEINE PHARMACEUTICALS PTY LTD, priority 2013, dated 2017).
Peptide text beside a SMILES is read from it.

How the values were obtained:
[1] = human, in vivo
Procedure: In our clinical studies, lead patients were dosed at 900 μg/h for 6 hours based on the standard calculation shown earlier to reach a target steady state blood plasma concentration of 10 ng/ml and plasma levels of VSDL measured. Six hours is more than five half-lives for VSDL and, as such, should result in a steady state blood plasma concentration. Having verified the target steady state blood plasma concentration from lead patients, then Cohort 1 “Part 1” received 900 μg/h for 12 hours so as to achieve target steady state blood plasma concentration. However, the target steady state blood plasma concentration was not observed and as such the dosing regime required modification. After significant postulation and modelling of the hypothetical behaviour of VSDL, the multimodal dosage regime was developed. Cohort 1 “Part 2” was introduced using the bimodal dosing regime in an effort to reach a steady state blood plasma concentration of 10 ng/ml. Cohort 1 “Part 2” patients received VSDL at 900 μg/h (ie initial dosage rate) for 5 hours (ie initial period), followed by 550 μg/h for 7 hours (ie maintenance dosage rate).

[2] = human, in vivo; remark: listed apart in the source
[3] = clinical; conditions: human, in vivo
Procedure: A cohort of 10 subjects with stable CHF and undergoing standard of care treatment was treated with the formulation as follows: • i) 2 sentinel subjects were treated with a one stage 6 hour sc infusion of VSDL at 900 μg/h (Subjects 1 and 3) • ii) 5 subjects were treated with a one stage 12 hour sc infusion of VSDL at 900 μg/h (Subjects 102, 103, 104, 105 and 106); and • iii) 3 subjects were treated with a bimodal sc infusion of VSDL at 900 μg/h for 5 hours and then 550 μg/h for 7 hours (Subjects 111, 112 and 114). The dose regimen for this trial was designed using a pharmacokinetic model for VSDL based on prior data. The final model was used to simulate the median and 90% prediction intervals for 1000 patients given VSDL at 900 μg/h for 5 h then 550 μg/h for 7 h. This dose regimen targeted a population value of 10 ng/ml for the period 6-12 h after the start of the infusion. The predictions of the model were compared to observed VSDL concentration data from the three subjects referred to at iii) above. A model where infusion rate (ml/h) and delivered volume (ml) affected KA was an acceptable empirical description of the data. This model reproduced the observed increase in VSDL concentrations at the end of a subcutaneous infusion. The net effect was generally that KA increased with time during subcutaneous infusions. […] The final model had acceptable predictive performance based on the Visual Predictive Checks (allowing for low number of subjects).

plasma concentration reached on continued increase beyond Css [1]: 30 ng/mL
Css reached when the dose was doubled ([1]; sc): 20 ng/mL
steady state blood plasma concentration of VSDL (Css) achieved ([1]; sc): 10 ng/mL
KA Absorption rate constant, Pop value [3]: 0.265 h⁻¹
KARATE Effect of infusion rate of KA, Pop value [3]: −0.135
KAVOL Effect of infusion volume on KA, Pop value [3]: 0.222
LGT1 Logit F value, Pop value [3]: −1.05
V Central volume, Pop value [3]: 8.93 L
influence of creatinine clearance (CCL) and body mass index (BMI) on VSDL elimination kinetics [3]: minor
clearance ([3]; CL Clearance, Pop value): 263 mL/min
clearance ([3]; CL Maximum Elimination rate, Pop value): 447 mL/min
V2 Multiplier of V for sc bolus, Pop value ([3]; sc): 1.596
V3 Multiplier of V for sc infusion, Pop value ([3]; sc): 3.142
bioavailability ([3]; sc, F Bioavailability, Pop value): 25.9%
Compound: CC(C)C[C@H](NC(=O)[C@H](C)NC(=O)[C@H](C)NC(=O)CNC(=O)[C@H](C)NC(=O)[C@H](CCC(=O)O)NC(=O)[C@H](CCC(=O)O)NC(=O)[C@H](CC(N)=O)NC(=O)[C@@H]1CCCN1C(=O)[C@H](CCC(=O)O)NC(=O)[C@H](CO)NC(=O)[C@H](CC(C)C)NC(=O)[C@@H](NC(=O)[C@H](CCC(N)=O)NC(=O)[C@@H]1CCCN1C(=O)[C@@H]1CCCN1C(=O)[C@@H](NC(=O)[C@@H](NC(=O)[C@@H](N)CCC(=O)O)C(C)C)C(C)C)C(C)C)C(=O)N[C@@H](CO)C(=O)N1CCC[C@H]1C(=O)N[C@@H](CC(C)C)C(=O)N1CCC[C@H]1C(=O)N[C@@H](CCC(=O)O)C(=O)N[C@H](C(=O)N1CCC[C@H]1C(=O)N1CCC[C@H]1C(=O)N[C@@H](Cc1c[nH]c2ccccc12)C(=O)N[C@H](C(=O)NCC(=O)N[C@@H](CCC(=O)O)C(=O)N[C@H](C(=O)N[C@@H](CO)C(=O)N1CCC[C@H]1C(=O)N[C@@H](C)C(=O)N[C@@H](CCC(N)=O)C(=O)N[C@@H](CCCNC(=N)N)C(=O)O)C(C)C)[C@@H](C)O)C(C)C [VSDL] (H-EVVPPQVLSEPNEEAGAALSPLPEVPPWTGEVSPAQR-OH; N-terminus and C-terminus assumed)
symptomatic hypotension from blood pressure drops [2]: none of these resulted in symptomatic hypotension
